Counter-ions that a name gives are not always drawn.

Data on two compounds can be found in patent US5157123A, “S-(2-thiopyridyl)-L-cysteine, a heterobifunctional crosslinking reagent” (priority 1989, dated 1992).

Data set [1] is described as follows: Water solubility of crosslinkers. It counts as physicochemical. Particulars: distilled water.
Data set [2] deals with human monoclonal IgM antibody 1688. In words: Incorporation of TPCH versus TPMPH into IgM antibody 1688 (periodate oxidation, pyridine-2-thione release at 343 nm). The settings on record: identical coupling conditions, FIG. 2. The method, then:
Human IgM (2.5 mg) in 0.1M sodium acetate, pH 5.5 (1 mg IgM/ml) was oxidized in the presence of 10.7 mg (50 μmoles) NaIO4 and 7 mg (19.8 μmoles) of TPCH. After 20 minutes at 0° C. the reaction mixture was chromatographed on a Sephadex G-25 column to remove access NaIO4 and uncoupled TPCH. The derivatized IgM molecules were eluted with 0.1M sodium phosphate, 0.1M sodium chloride, pH 7.5, and stored at 4° C. The extent of modification was determined to be 17 TPCH molecules per IgM by monitoring the release of pyridine-2-thione at 343 nm during incubation of the derivatized antibody in the presence of 10 mM dithiothreitol as described in J. Carlsson, H. Drevin, and R. Axen, Biochem. J., vol. […]
Human IgM (2.5 mg) was oxidized in 1.25 ml of 0.1M sodium acetate, pH 5.5, in the presence of 5.3 mg sodium periodate with either 6.9 mg (20 μmoles) of TPCH trihydrochloride (M.W.=353.5 daltons) or 4.4 mg (20 μmoles) of TPMPH (M.W.=229.3 daltons) at 0° C. […] The derivatized IgM molecules were eluted with 0.1M sodium phosphate, 0.1 M sodium chloride, pH 7.5 The extent of modification was determined as described above.
Human IgM (2.5 mg) was oxidized in the presence of 0.27 mg sodium periodate under identical conditions as described above. The extent of derivatization was determined after 20 minutes of incubation using the procedure described above.

For the compound `NNC(=O)[C@@H](N)CSSc1ccccn1` [TPCH, S-(2-Thiopyridyl)-L-Cysteine Hydrazide Trihydrochloride], the “water solubility (concentration to which it can be easily dissolved)” value in data set [1] is not below 1000 mM. As for `NNC(=O)CCSSc1ccccn1` [TPMPH, S-(2-thiopyridyl)-mercaptopropionic acid hydrazide], the maximum solubility in data set [1] amounted to 150 mM. Moreover, the “increase in time required for incorporation of comparable amounts of crosslinker per antibody, versus TPCH” value in data set [2] was approximately 3 fold.
